Series [1] in a line: oxidation reduction potential of aminopolycarboxylic acid ferric complex salts (bleaching agents). Conditions: vs. NHE, pH = 6. The series is classed as physicochemical. From the text:
Then, practical examples of the aminopolycarboxylic acid ferric complex salt in this invention are illustrated below together with their oxidation reduction potentials, but the bleaching agents for use in this invention are not limited to these compounds.
The oxidation reduction potential of the bleaching agent is defined as the oxidation reduction potential obtained by the method described in Transactions of the Faraday Society, Vol. 55, (1959), pages 1312-1313.

Series [2] in a line: acid dissociation constant pKa of secondary amines of formula (II). To be noted: in water at room temperature (about 25° C.).
Series [3] in a line: Example 4: image storage stability (magenta fading), color reversal material. To be noted: 80° C. for 3 days. How it is done: Sample 401 prepared was slit in 35 mm width, and after perforated in the same format as films on the market and applying thereto a uniform light exposure, the sample was processed according to the following processing steps using an hanging type automatic processor.
The image storage stability test was carried out under the condition of 80° C. for 3 days. Also, in a bright place, the presence of unevenness of the sample was visually observed.

The nature of series [4]: Example 3: turbidity of concentrated stabilizing replenisher after passage of time. The series is classed as physicochemical. Details: key to Turbidity after Passage of Time: E: Neither turbidity nor precipitation.; G: Turbidity occurred very slightly.; M: Slightly precipitation formed at the bottom of the vessel in addition to turbidity.; B: Precipitation layer of 5 mm or more formed on the bottom of the vessel. To be noted: 40° C. How it is done:
One liter of the concentrated stabilizing replenisher shown below was prepared and filled in a 1.2 liter polyethylene bottle.
After allowing to stand the concentrated solution thus-prepared at 40° C. for 1 month or 6 months, the turbidity of the solution was visually observed.
In addition, the evaluation standards of the turbidity of the solution with the passage of time in Table C are as follows.

Series [5] can be described thus: Example 1: evaluation of image storage stability (magenta fading), stabilizing solution. To be noted: for M Fading: 2 weeks 60° C. 20% RH. How it is done: In addition, the time for the stabilization step was changed by changing the length of the processing rack.
Thereafter, the sample was allowed to stand for 2 weeks under the conditions of 60° C. 20% RH and then the magenta density was measured again. Thus, magenta fading was evaluated by the reduced magenta density in the density stage that the magenta density after processing was 1.5. (M fading)

Series [6] in a line: Example 6: image storage stability (magenta fading), image stabilizer in conditioning bath. How it is done: The same processing steps as in Example 4 were carried out except for changing the conditioning solution and the stabilizing solution as follows.
In this case, the time for the final stabilizing step was one minute and the time for the conditioning step was changed as shown in Table E in the processing.
By using the same method as in Example 1, the image storage stability of the processed film obtained and the vapor pressure of formaldehyde were evaluated.

Series [7] is described as follows: Example 2: fading of the magenta density at intermediate density portion. Conditions: formaldehyde 4.0 mmol, 2 weeks 60° C., 70% RH. Here is the method:
The following processing steps were carried out using the following processing solutions and a cine type automatic processor.
According to a sample, fading of the magenta density at the intermediate density portion and the occurrence of yellow stain at the minimum density portion were observed.

Setting [8] is: 5 mmol/l, stabilization time 10 sec.
Where [9] appears, read: 5 mmol/l, stabilization time 20 sec.
Setting [10] is: 5 mmol/l, stabilization time 60 sec.
Where [11] appears, read: 3 mmol/l, time of conditioning bath 40 sec.
[12] abbreviates: 3 mmol/l, time of conditioning bath 90 sec.
Setting [13] is: 3 mmol/l, time of conditioning bath 120 sec.

On to “1,3-Propylenediaminetetraacetic Acid Ferric Complex Salt [compound 7]”, for which the “Oxidation Reduction Potential” value in series [1] came out at 250 mV.

“1,4-Butylenediaminetetraacetic Acid Ferric Salt [compound 4]”: in series [1], the “Oxidation Reduction Potential” value stood at 230 mV.

For the compound `CCCCNC` [Compound 11-5], the pKa in series [2] is 10.9.

With `OCCN(CCO)Cn1cccn1` [Compound A-1], in series [3] (6 mmol/l), the “M Fading” value came to 0.04. In addition, the “Turbidity after Passage of Time” value in series [4] (0.5 mol, 1 month) is on record as “G”; in series [4] (0.5 mol, 6 months), “M”.

Regarding `Cc1ccn(CN(CCO)CCO)n1` [Compound A-11], the “M Fading” value was 0.10 in series [5] (setting [8]); 0.05 in series [5] (setting [9]); 0.00 in series [5] (setting [10]); 0.01 in series [6] (setting [11]); 0.00 in series [6] (setting [12]); 0.00 in series [6] (setting [13]).

For the compound `OCCN(CCO)Cn1cncn1` [Compound A-12], the “Turbidity after Passage of Time” value in series [4] (0.5 mol, 1 month) is reported as “G”; in series [4] (0.5 mol, 6 months) it was “M”.

With `c1cnn(CN2CCOCC2)c1` [Compound A-16], the “M Fading” value worked out at 0.05 in series [3] (6 mmol/l), 0.02 in series [5] (setting [8]), 0.00 in series [5] (setting [9]) and 0.00 in series [5] (setting [10]).

In the case of `c1cnn(CN2CCCCC2)c1` [Compound A-17], the “M Fading” value in series [5] (setting [8]) was determined as 0.02; in series [5] (setting [9]), 0.01; in series [5] (setting [10]) it was 0.00.

In the case of `c1cnn(CN2CCN(Cn3cccn3)CC2)c1` [Compound A-22], the “M Fading” value in series [3] (6 mmol/l) came out at 0.00; in series [5] (setting [8]), 0.01; in series [5] (setting [9]) it was 0.00; in series [5] (setting [10]) it was 0.00; in series [6] (setting [11]) it was 0.01; in series [6] (setting [12]) it was 0.00. In series [6] (setting [13]), the “M Fading” value is on record as 0.00. For the same compound, the “Turbidity after Passage of Time” value in series [4] (0.5 mol, 1 month) is on record as “G”; in series [4] (0.5 mol, 6 months) it was “M”.

`c1ncn(CN2CCN(Cn3cncn3)CC2)n1` [Compound A-23]: the “M Fading” value in series [3] (6 mmol/l), in series [5] (setting [8]), in series [5] (setting [9]), in series [5] (setting [10]), in series [6] (setting [11]) and in series [6] (setting [12]) was 0.00 throughout. For the same compound, in series [6] (setting [13]), the “M Fading” value was 0.00. The “Turbidity after Passage of Time” value was “G” in series [4] (0.5 mol, 1 month) and “M” in series [4] (0.5 mol, 6 months).

On to `c1ncn(CN2CCOCC2)n1` [Compound A-26], for which the “M Fading” value worked out at 0.00 in series [3] (6 mmol/l), 0.03 in series [5] (setting [8]), 0.01 in series [5] (setting [9]) and 0.01 in series [5] (setting [10]).

Consider `OCCN1CCN(Cn2cccn2)CC1` [Compound A-32], for which the “M Fading” value in series [3] (6 mmol/l) is 0.00; in series [6] (setting [11]) it was 0.01; in series [6] (setting [12]) it was 0.01; in series [6] (setting [13]), 0.01.

Regarding `OCN1CCN(Cn2cncn2)CC1` [Compound A-45], the “M Fading” value was determined as 0.04 in series [5] (setting [8]); 0.01 in series [5] (setting [9]); 0.01 in series [5] (setting [10]); 0.01 in series [6] (setting [11]); 0.01 in series [6] (setting [12]); 0.01 in series [6] (setting [13]).

`c1nc[nH]n1` [Compound I-4]: the figures for the M-Fading in series [7] (formula (I) 4 mmol) and in series [7] (formula (I) 16 mmol) were 0.16 and 0.17, respectively.

For `O=C1N(CO)CCN1CO` [Dimethylolethyleneurea, reference compound], the “Turbidity after Passage of Time” value in series [4] (0.3 mol, 1 month) was “M”; in series [4] (0.3 mol, 6 months), “B (Precipitation layer of 5 mm or more formed on the bottom of the vessel.)”.

Turning to `C1N2CN3CN1CN(C2)C3` [Hexamethylenetetramine, reference compound], the “M Fading” value in series [3] (6 mmol/l) amounted to 0.29; in series [3] (100 mmol/l), 0.10; in series [5] (setting [8]) it was 0.30; in series [5] (setting [9]) it was 0.31; in series [5] (setting [10]) it was 0.30; in series [5] (27 mmol/l, stabilization time 10 sec.), 0.28. Further, the “M Fading” value in series [5] (27 mmol/l, stabilization time 20 sec.) is given as 0.27; in series [5] (27 mmol/l, stabilization time 60 sec.), 0.28; in series [6] (setting [11]) it was 0.25; in series [6] (setting [12]) it was 0.22; in series [6] (setting [13]), 0.10; in series [6] (13 mmol/l, time of conditioning bath 40 sec.) it was 0.09. Further, the “M Fading” value is listed as 0.05 in series [6] (13 mmol/l, time of conditioning bath 90 sec.) and 0.02 in series [6] (13 mmol/l, time of conditioning bath 120 sec.). Moreover, the “fading inhibition effect (in words)” value in series [5] (Table A) is reported as “the fading inhibition effect is insufficient even when a large amount of the compound is used”.

`CNC` [II-1] displayed a pKa in series [2] of 10.9.

Take `CCNCCO` [II-6]: in series [2], the pKa amounted to 10.1.

As for `CNCCO` [II-8], the pKa in series [2] is 9.8.

Compound `CNCCCCO` [II-9] returned a pKa in series [2] of 9.6.

In turn, `CCCCNCCC#N` [II-10] showed a pKa in series [2] of 8.3.

On to `CC(C)NCCC#N` [II-11], for which the pKa in series [2] came to 8.0.

In turn, `CNCC(=O)N(C)C` [II-12] came in with a pKa in series [2] of 8.8.

Take `CCNC[Si](C)(C)C` [II-13]: the pKa in series [2] is on record as 11.1.

In turn, `CCN(CC)CCNC` [II-14] returned a pKa in series [2] of 9.9.

`CNCCNC` [II-15]: in series [2], the pKa came out at 9.9.

Consider `CCNCCNCC` [II-16], for which the pKa in series [2] was 10.2.

In series [2], `OCCNCCNCCO` [II-17] showed a pKa of 9.2.

With `CCNCCCNCC` [II-18], the pKa in series [2] is recorded as 10.6.

In turn, `C1COCCN1` [II-21] returned a M-Fading in series [7] (formula (II) 4 mmol) of 0.04.

With `C1CNCCN1` [II-22], the M-Fading in series [7] (formula (II) 2 mmol) stood at 0.03; in series [7] (formula (II) 4 mmol) it was 0.02.

In series [2], `C1CCCNCC1` [II-23] returned a pKa of 10.9.

As for `CC1CCNCC1` [II-24], the pKa in series [2] worked out at 10.8.

On to `CC1CNC(C)CN1` (centres unmarked) [II-25], for which the pKa in series [2] is reported as 9.7.

In turn, `CCOC(=O)N1CCNCC1` [II-26] yielded a pKa in series [2] of 8.3.

Regarding `C1NCC2CNCC1C2` [II-27], the pKa in series [2] stood at 11.3.

“Diethylenetriaminepentaacetic Acid Ferric Complex Salt [compound 9]”: the “Oxidation Reduction Potential” value in series [1] is reported as 80 mV.

Regarding “Glycol Ether Diaminetetraacetic Acid Ferric Complex Salt [compound 6]”, the “Oxidation Reduction Potential” value in series [1] was 240 mV.

As to “Iminodiacetic Acid Ferric Complex Salt [compound 3]”, in series [1], the “Oxidation Reduction Potential” value is on record as 210 mV.

Turning to “Methyliminodiacetic Acid Ferric Complex Salt [compound 2]”, the “Oxidation Reduction Potential” value in series [1] was determined as 200 mV.

Regarding “N-(2-Acetamido)iminodiacetic Acid Ferric Complex Salt [compound 1]”, the “Oxidation Reduction Potential” value in series [1] is reported as 180 mV.

What is called pKa is the negative logarithm of the acid dissociation constant.

For the origin of these results see patent US5270148A, “Processing solution for silver halide color photographic materials and method for processing the materials with the processing solution” (priority 1991, dated 1993).
